Laboratory results published in US20020055528A1, “Artemisinin analogs having antimalarial, antiproliferative, and antitumor activities and chemoselective methods of making the same” (priority 1999, published 2002).
pIC50: −log10 of the molar value.

How the values were obtained:
[1] = tested on: murine keratinocyte cell line PE; assay: Growth inhibition of PE cells, MTT assay; format: cell-based; settings: 100 nanomolar; compared with calcitriol; FIG. 5
Experimental: To determine the inhibitory effect of the compositions of the present invention on cell proliferation, screening assays were performed on a murine keratinocyte cell line PE. Cell line PE was chosen for its particular sensitivity to the induction of omithine decarboxylase (ODC) activity by the extensively characterized tumor promoter TPA. Cell line PE was derived from a papilloma-induced in female SENCAR mice by a standard skin initiation/promotion protocol, see Yuspa, S. H., et al., Carcinogenesis, 7:949-958 (1986). PE cell culture medium consisted of Eagle's minimal essential medium without calcium chloride (Whittaker Bioproducts, Walkersville, Mass.) supplemented with 8% chelexed fetal calf serum and 1% antibiotic-antimycotic (Gibco BRL) and the addition of CaCI2 to 0.05 mM Ca^++
MTT [3-(4,5-dimethylthiazol-2-yl)-2,5-diphenyltetraxolium bromide] was purchased from Sigma Chemical Co. (St. Louis, Mo.), and TPA was supplied by L.C. Services (Woburn, Mass.). L-[^14C]omithine ([…]) was from Amersham/Searle Corp. (Arlington Heights, Ill.). Chemical solvents used in all assays of biological activity were of the highest grade commercially available.
Growth curves, shown in FIG. 5, for PE cells treated with calcitriol and the C-10 carbon-substituted dimers VII-f, VII-g and VII-h generated by assay for the reduction of the tetrazolium-based compound MTT, see Charmichael, et al., Cancer Res., 47:936-942 (1987). A mitochondrial dehydrogenase reduces MTT to a blue formazan product with an absorbance maximum of 505 nm in DMSO; the number of viable cells can thus be determined spectrophotometrically. PE cells were seeded at a density of 5,000 cells/well in 50 IL of medium into 96-well microtiter plates. Twelve hours later, the medium was removed, and cells were treated with 100 μL of fresh medium into which the appropriate amount of calcitriol or analog dissolved in dimethyl sulfoxide (DMSO) had been added, with the concentration of DMSO held constant at 0.1 %. […] At 24-hour intervals following the initial treatment of the cells with compounds, 0.1 mg (50 μL of a 2 mg/mL solution) of MTT was added to each well. After 4 hours, the MTT was removed and DMSO added to dissolve the blue formazan dye. Using a microtiter plate reader, the A505 was then determined and cell number calculated from blank-subtracted absorbance values.

NCI-H226 = assay: NCI 60 cell line screen (SRB), Non-Small Cell Lung Cancer; format: cell-based; settings: for Log10TGI: PG=0
NCI-H460 = assay: as above; format: cell-based; settings: for Log10TGI: PG=0; for Log10 GI50 or Log10 LC50: PG=+50
HT29 = assay: NCI 60 cell line screen (SRB), Colon Cancer; format: cell-based; settings: for Log10TGI: PG=0
SF-268 = assay: NCI 60 cell line screen (SRB), CNS Cancer; format: cell-based; settings: for Log10TGI: PG=0; for Log10GI50: PG=+50
SF-295 = assay: NCI 60 cell line screen (SRB), CNS Cancer; format: cell-based; settings: for Log10TGI: PG=0; for Log10GI50: PG=+50
SK-MEL-28 = assay: NCI 60 cell line screen (SRB), Melanoma; format: cell-based; settings: for Log10TGI: PG=0
OVCAR-5 = assay: NCI 60 cell line screen (SRB), Ovarian Cancer; format: cell-based; settings: for Log10TGI: PG=0
TK-10 = assay: NCI 60 cell line screen (SRB), Renal Cancer; format: cell-based; settings: for Log10TGI: PG=0
[2] = tested on: chloroquine-sensitive P. falciparum (NF54); assay: Antimalarial screening, [3H]hypoxanthine incorporation; format: cell-based, Plasmodium falciparum; settings: Plasmodium falciparum, NF54, chloroquine-sensitive P. falciparum (NF54); read-out: IC50
Experimental: Activity was determined by measuring the incorporation of [^3H]hypoxanthine, by the methods of Desjardins and Milhouse, with the following modifications, see […].; Haynes, […]. Antimicrob. Agents Chemother., 16: 710 (1979); Milhous, W. K.; Weatherly, […].; Antimicrob. Agents Chemother., 27: 525 (1985). […] Calbiochem #391338), 27 mM NaHCO3 (Gibco BRL # 11810-025), and 10% heat-inactivated human type O+serum (Interstate Blood Bank, Inc.), under 3% O2, 4% CO2, and 93% N2-Parasitemia was maintained at 0.05-3% and doubling time at approximately 15 hours by twice weekly change of medium and replenishment with fresh erythrocytes. […] Sigma-Aldrich #27,043-1). DMSO solutions were diluted 500-fold in medium, serially diluted in 0.2% DMSO in medium (to maintain constant solvent concentration), then 100 μL aliquots were pipetted into microtiter plate wells (Costar3595). […] Cells were harvested (Brandel MB-48R) onto GF-C glass filters (Brandel). The filters were washed five times with 3 mL water per sample spot, dried under a heat lamp, and counted (Beckman Model LS-6500) in scintillation cocktail (ICN Cytoscint). Decays per minute (dpm) values were downloaded and analyzed (Power Macintosh 7200/90; Microsoft Excel 5.0), to yield the mean and standard deviation at each drug concentration.

60 cell line panel = settings: 60 lines, nine subpanels; later anticancer studies; cited from earlier work
P. berghei = settings: P. berghei-infected mice; parasitemia 90 percent suppressed; cited from earlier work
P388 leukemia = settings: NCI Report on NSC 369397; cited from earlier work
[3] = tested on: P. vivax and P. falciparum; settings: 2099 cases of malaria, different dosage forms; cited from earlier work
P. falciparum = settings: two Hanian strains; compared with chloroquine; cited from earlier work
[4] = cited from earlier work

| SMILES | antiproliferative activity in words [1] | Log10TGI (NCI-H226) | Log10GI50 (NCI-H226; PG=+50) | Log10GI50 (NCI-H226; Table IV (LC50, PG=−50)) | Log10TGI (NCI-H460) | Log10 GI50 or Log10 LC50 (NCI-H460) | Log10TGI (HT29) | Log10GI50 (HT29; PG=+50) | Log10GI50 (HT29; Table IV (LC50, PG=−50)) | Log10TGI (SF-268) | Log10GI50 (SF-268) | Log10TGI (SF-295) | Log10GI50 (SF-295) | Log10TGI (SK-MEL-28) | Log10TGI (OVCAR-5) | Log10GI50 (OVCAR-5; PG=+50) | Log10GI50 (OVCAR-5; Table IV (LC50, PG=−50)) | Log10TGI (TK-10) | Log10GI50 (TK-10; PG=+50) | Log10GI50 (TK-10; Table IV (LC50, PG=−50)) | also measured |
| --- | --- | --- | --- | --- | --- | --- | --- | --- | --- | --- | --- | --- | --- | --- | --- | --- | --- | --- | --- | --- | --- |
| CC1=C(C=Cc2cccc(C=CC3=C(C)C4CCC(C)C5CCC6(C)OOC45C(O3)O6)c2)OC2OC3(C)CCC4C(C)CCC1C24OO3 (stereo not shown) [VII-f] | at least as antiproliferative as calcitriol | >−4.00 log10M | −4.61 log10M | >−4.00 log10M | >−4.00 log10M | −6.03 log10M | >−4.00 log10M | −5.90 log10M | >−4.00 log10M | >−4.00 log10M | −5.70 log10M | >−4.00 log10M | −5.25 log10M | >−4.00 log10M | >−4.00 log10M | −6.04 log10M | >−4.00 log10M | >−4.00 log10M | −5.44 log10M | >−4.00 log10M | Log10GI50 (SK-MEL-28; PG=+50): −4.00 log10M; Log10GI50 (SK-MEL-28; Table IV (LC50, PG=−50)): >−4.00 log10M |
| C[C@@H]1CC[C@H]2[C@@H](C)C(=O)O[C@@H]3O[C@]4(C)CC[C@@H]1[C@]32OO4 [Artemisinin, artemisinin] |  | >−4.00 log10M | >−4.00 log10M | >−4.00 log10M |  |  | >−4.00 log10M | >−4.00 log10M | >−4.00 log10M |  |  |  |  | >−4.00 log10M | >−4.00 log10M | >−4.00 log10M | >−4.00 log10M | >−4.00 log10M | >−4.00 log10M | >−4.00 log10M | pIC50 [2]: 8.00; Log10GI50 (SK-MEL-28; PG=+50): >−4.00 log10M; Log10GI50 (SK-MEL-28; Table IV (LC50, PG=−50)): >−4.00 log10M; anticancer activity in words (60 cell line panel): very little anticancer activity; SD90 (P. berghei): 6.20 mg/kg; activity in words (P388 leukemia): inactive; clinical outcome [3]: clinical cure of all patients; potency in words (P. falciparum): comparable to that of chloroquine; solubility in water in words [4]: insolubility in water |
| CC(=O)O[C@H]1C(=O)[C@@]2(C)[C@H]([C@H](OC(=O)c3ccccc3)[C@]3(O)C[C@H](OC(=O)[C@H](O)[C@@H](NC(=O)c4ccccc4)c4ccccc4)C(C)=C1C3(C)C)[C@]1(OC(C)=O)CO[C@@H]1C[C@@H]2O [Paclitaxel, paclitaxel, reference compound] |  | −4.80 log10M |  | −4.10 log10M | −4.46 log10M |  |  | <-13.00 log10M | −4.39 log10M |  |  |  |  |  | −4.92 log10M | −9.38 log10M | >−4.00 log10M |  | −7.89 log10M |  |  |
| CC1=C(C=Cc2cccc(C=CC3=C(C)C4CCC(C)C5CCC6(C)OOC45C(O3)O6)c2)OC2OC3(C)CCC4C(C)CCC1C24OO3 (stereo not shown) [VII-h] | at least as antiproliferative as calcitriol | >−4.00 log10M | >−4.00 log10M | >−4.00 log10M | >−4.00 log10M | −5.59 log10M | >−4.00 log10M | −7.37 log10M | >−4.00 log10M | >−4.00 log10M | −6.86 log10M | >−4.00 log10M | −6.39 log10M |  | >−4.00 log10M | −7.12 log10M | >−4.00 log10M | >−4.00 log10M | −7.22 log10M | >−4.00 log10M |  |
| CC1=C(C=Cc2cccc(C=CC3=C(C)C4CCC(C)C5CCC6(C)OOC45C(O3)O6)c2)OC2OC3(C)CCC4C(C)CCC1C24OO3 (stereo not shown) [VII-g] | at least as antiproliferative as calcitriol | >−4.00 log10M | −4.91 log10M | >−4.00 log10M | >−4.00 log10M | −5.13 log10M | >−4.00 log10M | −6.88 log10M | >−4.00 log10M | >−4.00 log10M | −6.42 log10M | >−4.00 log10M | −6.48 log10M |  | >−4.00 log10M | −6.58 log10M | >−4.00 log10M | >−4.00 log10M | −6.48 log10M | >−4.00 log10M |  |
